According to US20240108739A1, “OLIGOMERIC COMPOUNDS BINDING SPECIFICALLY TO PROTEOGLYCANS” (PHI PHARMA SA, priority 2020, published 2024):
Starred links: 1 amine or outer side, 2 acyl side, 3 side chain; linkers in the order of their positions; H or OH if unused. Positions of bridges follow the written chain, without caps; N, C: chain ends. Non-standard residues stand in square brackets, D forms with d. Residues, ends and D or L forms follow the SMILES beside them. Chains are numbered I, II in the order given. No end group written: not given here. ξ: configuration not given here. *: point of attachment. X1 = CC1(C)C(/C=C/C(=C/C=C2\N(CCCS(=O)(=O)O)c3ccc(S(=O)(=O)O)cc3C2(C)C)c2cccc(CCC(=O)NCCN3C(=O)CC(*)C3=O)c2)=Nc2c1cc(Cl)c[n+]2CCCS(=O)(=O)[O-]; X3 = N=c1ccc2c(-c3ccc(C(=O)NCCCCCN4C(=O)CC(*)C4=O)cc3C(=O)O)c3ccc(N)c(S(=O)(=O)O)c3oc-2c1S(=O)(=O)O; X2 = O=C(CCCCCN1C(=O)CC(*)C1=O)NNC(=O)CCCCC1SC[C@H]2NC(=O)N[C@@H]12; NH(CH2CH2O)5CH2CO = O=C(COCCOCCOCCOCCOCCN[*:1])[*:2]; ξIle = CC[C@H](C)C(N)C(=O)O; Orn = NCCC[C@H](N)C(=O)O; AEA = NCCOCC(=O)O

Legend:
[1] = test system: HCT-116 cells (colon carcinoma); assay: Internalization in adherent cells, Trypan Blue quenching flow cytometry (Example 6); type: cell-based; details: 200 nM, 37 °C, FIG. 8
Procedure: Adherent cell lines in exponential growth phase were cultured in complete culture medium with 10% FBS and grown in flat-bottom culture plates. On the day of the experiment, cells were washed with culture medium supplemented with 3% BSA (Sigma-Aldrich) and then incubated with peptides coupled with A488 fluorochrome for various timepoints (from 5 to 160 min) at a single concentration or at various dilutions (serial dilutions) at a determined timepoint at 37° C. in the corresponding culture medium supplemented with 3% BSA. After the incubation, cells were washed in PBS 1× and detached using trypsin. Following trypsinization, cells were washed in PBS 1× supplemented with 3% BSA and then incubated for at least 15 min at 4° C. with DAPI (Thermo Fisher Scientific) in order to exclude dead cells. Right before acquisition on a flow cytometer, samples were divided in two. The first series of samples was acquired directly on a flow cytometer whereas the second series was supplemented with Trypan Blue in order to observe the internal fluorescence only. The percentage of internalization was further determined.
Fluorescence geometric mean of samples is standardised by subtracting fluorescence geometric mean of negative control (no compound) and the addition of 1.

[2] = background statement; cited from earlier work
[3] = test system: chondroitin-4-sulfate (C4S); assay: ELISA binding to purified GAGs (Example 1); details: SAV-HRP/TMB absorbance 450 nm, binding at pH 6.4 for 1 hour at 37 °C, FIG. 1
Procedure: (§1) ELISA plates were coated with various purified GAGs (Sigma, AMBIO) in PBS pH 7.4 for 2 hours at 37° C. Plates were blocked overnight at 4° C. with 200 μl of PBS pH 7.4, Tween 0.05%+BSA 3%+PEG400 2%, then washed twice with fresh buffer TSCM pH 6.4 ((Tris 20 mM, NaCl 150 mM, BSA 1%, Tween 0.05%, 2 mM MgCl2, 2 mM CaCl2). Binding of the different peptides at serial dilution was conducted in TSCMP (TSCM+2% (w/v) PEG 600) pH 6.4 for 1 hour at 37° C. (100 ul per well). Plates were washed three times with fresh TSCM pH 6.4 (200 ul per well) and SAV-HRP was added at a dilution of 1/8000 (100 ul per well) for 20 min at room temperature. Following 3 washes with PBS pH 7.4, 3,3′,5,5′-tetramethylbenzidine (TMB) substrate was added for 10 min (100 ul per well), protected from light. The reaction was stopped by addition of 100 μl of 1 M H2SO4 and the absorbance at 450 nm was measured.
(§2) The GAGs tested in this example were: C4Str: chondroitin-4-sulfate(tracheal); C4Sns: chondroitin-4-sulfate (nasal); CSPG: chondroitin sulfate proteoglycan; C6S: chondroitin-6-sulfate; HA: hyaluronic acid; HEP: heparin; HS: heparan sulfate; DS: dermatan sulfate; PBS: PBS negative control.

[4] = test system: chondroitin-6-sulfate (C6S); assay: ELISA binding to purified GAGs (Example 1); details: SAV-HRP/TMB absorbance 450 nm, binding at pH 6.4 for 1 hour at 37 °C, FIG. 1
Procedure: as §1, §2

CHO-K1 (WT) cells = assay: Flow cytometry binding of 680RD-labelled PEG variants to CHO cells (Example 4); type: cell-based; details: 680RD fluorescence, 30 min at 4 °C, BSA 3% + PEG600 2%; FIGS. 4 and 5
Procedure: Tumor cell lines in exponential growth phase were cultured in complete culture medium with 10% FBS and grown in 75 cm^2 cell culture flasks. On the day of the experiment, cells were harvested and transferred in V-bottom culture plates, washed with PBS 1× supplemented with BSA 3% and then incubated with compounds of the present invention coupled with 680RD fluorochrome for 30 min at 4° C. in PBS 1× supplemented with BSA 3% and PEG600 2% at various dilutions (serial dilutions).
After the incubation, cells were washed in PBS 1× supplemented with BSA 3%.
After the incubation, cells were washed in PBS 1× supplemented with 3% BSA and then incubated for at least 15 min at 4° C. with DAPI (Thermo Fisher Scientific) in order to exclude dead cells and samples are directly acquired on a flow cytometer. Data generated on the flow cytometer was analyzed using Flowjo™ 10.6.0.

HCT 116 tumor xenograft = assay: In vivo biodistribution by Optical Imaging in HCT 116 xenografted mice (Example 9); set-up: species or system athymic nude mice
Procedure: For this purpose, HCT 116 cells were subcutaneously inoculated into the shoulder of athymic nude mice, and then the fluorescently-labelled compound was administered intravenously.
Optical Imaging was used to evaluate fluorescent signals in mice 0.5, 1, 3, 8, 24, and 72 hours after the administration of [(51-hS)2KS]2KC-Mal-680RD at 3 different concentrations. Flow cytometry was also used to evaluate the tumor target expression in xenografted mice.
HCT-116 cells were grown in McCoy's 5a medium supplemented with 10% foetal bovine serum, 100 IU/mL penicillin and 100 μg/mL streptomycin. The trypan-blue exclusion test was used to assess cell viability before cells inoculation. An aliquot (10 μL) of cell suspension was mixed with an equal amount of 0.4% trypan blue solution in PBS. 10 μL of the final solution was introduced in a counting chamber (hemocytometer). Viable cells appear round and bright, while damaged cells appear deep blue because of the incorporation of the trypan dye. Cell viability was expressed as % of viable cells over total cells). Cell cultures with viability of less than 70% were discarded.
HCT 116 cells were collected and washed two times with PBS. One million of HCT 116 cells were suspended in 1:1 Matrigel™: McCoy's 5a (total volume 0.15 mL) and then injected subcutaneously into the shoulder of each female mouse of groups A, B, C.
Animals were randomly assigned to the following experimental groups, Table 12.
All animals were dosed once according to Table 12 when the tumors reached approximately 500-600 mm^3. The solutions were injected intravenously via the tail vein at the administration volume of 100 μL. After each injection the tail vein was flushed with 100 μL of sterile saline solution. All animals were individually inspected before the treatment and 0.5, 1, 3, 8, 24, and 72 hours after treatment.
Clinical signs of the animals, such as posture, movement, breath, external body appearance, and any other relevant clinical sign were recorded. Mice of groups A, B, and C were anesthetized under 3-4% Sevoflurane gas anaesthesia (O2 95.0%) and imaged 0.5, 1, 3, 8, 24, and 72 hours post treatments. Mice were irradiated with filtered light of wavelength 675 nm and an image of emission light intensity was collected at 720 nm wavelength. Field of View, fstop, Binning and Exposition Time were determined during experimental setting. Regions of interest (ROIs) were selected by an operator over the acquired supine, dorsal, and side views. The signal intensity within the ROIs was determined automatically by the software. At the end of the experiment the mice were sacrificed and tumors were excised to measure ex vivo the fluorescent signal intensity.

[5] = test system: CHO-K1 cells (wild type, GAG present); assay: Flow cytometry binding of biotinylated compounds to CHO cells (Example 3); type: cell-based; details: 30 min at 4 °C, streptavidin-680RD fluorescence; FIG. 3A
Procedure: (§3) Cell lines in exponential growth phase were cultured in complete culture medium with 10% FBS and grown in 75 cm^2 cell culture flasks. On the day of the experiment, cells were harvested and transferred in V-bottom culture plates, washed with PBS 1× supplemented with BSA 3% and then incubated with (51-hS)2KC-Mal-Biotin, (51-hS)2KS-(51-hS)KC-Mal-Biotin, [(51-hS)2KS]2KK(Biotin) and VAR2-Biotin for 30 min at 4° C. in PBS 1× supplemented with BSA 3% (and eventually PEG600 2%) at various dilutions (serial dilutions).
(§4) After the incubation, cells were washed in PBS 1× supplemented with BSA 3%. For visualization, cells were incubated for 15 min at 4° C. with streptavidin coupled to 680RD fluorochrome. After the incubation, cells were washed in PBS 1× supplemented with 3% BSA and then incubated for at least 15 min at 4° C. with 4′,6-diamidino-2-phenylindole (DAPI) (Thermo Fisher Scientific) in order to exclude dead cells. Samples were directly applied to a flow cytometer. Data generated on the flow cytometer was analyzed using Flowjo™ 10.6.0.

[6] = test system: CHO-pgsA-745 cells (GAG-deficient mutant); assay: as above; type: cell-based; details: 30 min at 4 °C, streptavidin-680RD fluorescence; FIG. 3B
Procedure: as §3, §4

I: Ac-RYF[dV]R[ξIle][Orn]YR[dH]SKSKC(X3)-NH2 / II: Ac-RYF[dV]RI[Orn]YR[dH]SKS / III: Ac-RYF[dV]RI[Orn]YR[dH]S / IV: Ac-RYF[dV]RI[Orn]YR[dH]S (amide I:12-III:C, I:14-II:C, II:12-IV:C) [[(51-hS)2KS]2KC-Mal-Alexa488]
extent of internalisation in HCT-116 cells ([1]; time course up to 160 min): 85% | time after which 70% is internalised in HCT-116 cells [1]: 40 min

CCc1c2c(nc3ccc(O)cc13)-c1cc3c(c(=O)n1C2)COC(=O)[C@]3(O)CC [SN-38]
activity relative to irinotecan [2]: 1000 times | potency relative to irinotecan in in vitro cytotoxicity assays [2]: 2- to 2000 fold

RYFvRIOYR (RYF[dV]RI[Orn]YR) [SEQ ID NO:37, Peptide moiety 51]
binding affinity to C4S [3]: binds specifically | binding affinity to C6S [4]: binds specifically

[(51-hS)2K(PEG5)]2KC-Mal-680RD: Four copies of SEQ ID NO:37, structure comprising SEQ ID NO:7 (n is 5), L-Cys conjugated to IRDye 680RD Maleimide (chain 1 RYF[dV]RI[Orn]YR; chain 2 [dH]SK[NH(CH2CH2O)5CH2CO]KC(IRDye 680RD maleimide); also: four peptide copies on branched Lys scaffold, further copies not in the chains)
binding on CHO-K1 cells compared with [(51-hS)2KS]2KC-Mal-680RD (CHO-K1 (WT) cells): increased binding

I: Ac-RYF[dV]R[ξIle][Orn]YR[dH]SKSKC(X1)-NH2 / II: Ac-RYF[dV]RI[Orn]YR[dH]SKS / III: Ac-RYF[dV]RI[Orn]YR[dH]S / IV: Ac-RYF[dV]RI[Orn]YR[dH]S (amide I:12-III:C, I:14-II:C, II:12-IV:C) [[(51-hS)2KS]2KC-Mal-680RD]
tumor signal of group B relative to other groups (HCT 116 tumor xenograft; group B 20 nmol/mouse i.v. vs 4 nmol/mouse, dependent on dose and on blocking compound): higher tumor signal | tumor to muscle ratio of fluorescence signal (HCT 116 tumor xenograft; groups A and B, all imaging times, FIGS. 12 and 13): almost two-fold | fluorescence signal (Average Radiant Efficiency) in the abdominal region, mainly liver and intestine (HCT 116 tumor xenograft; groups A, B, C (4, 20, 4 + 16 unlabeled nmol/mouse i.v.), imaging 0.5-72 h, independent of dose or blocking compound): strong signal | fluorescence signal (Average Radiant Efficiency) in the tumor (HCT 116 tumor xenograft; tumor of all groups, mainly groups A and B, i.v., imaging 0.5-72 h): presence of a signal

[(51-hS)2K(PEG1)]2KC-Mal-680RD: Four copies of SEQ ID NO:37, structure comprising SEQ ID NO:7 (n is 1), L-Cys conjugated to IRDye 680RD Maleimide (chain 1 RYF[dV]RI[Orn]YR; chain 2 [dH]SK[AEA]KC(IRDye 680RD maleimide); also: four peptide copies on branched Lys scaffold, further copies not in the chains)
binding on CHO-K1 cells compared with [(51-hS)2KS]2KC-Mal-680RD (CHO-K1 (WT) cells): increased binding

CC[C@H](C)C(NC(=O)[C@H](CCCNC(=N)N)NC(=O)[C@H](NC(=O)[C@H](Cc1ccccc1)NC(=O)[C@H](Cc1ccc(O)cc1)NC(=O)[C@H](CCCNC(=N)N)NC(C)=O)C(C)C)C(=O)N[C@@H](CCCN)C(=O)N[C@@H](Cc1ccc(O)cc1)C(=O)N[C@@H](CCCNC(=N)N)C(=O)N[C@H](Cc1c[nH]cn1)C(=O)N[C@@H](CO)C(=O)N[C@@H](CCCCNC(=O)[C@H](CO)NC(=O)[C@@H](Cc1c[nH]cn1)NC(=O)[C@H](CCCNC(=N)N)NC(=O)[C@H](Cc1ccc(O)cc1)NC(=O)[C@H](CCCN)NC(=O)[C@@H](NC(=O)[C@H](CCCNC(=N)N)NC(=O)[C@H](NC(=O)[C@H](Cc1ccccc1)NC(=O)[C@H](Cc1ccc(O)cc1)NC(=O)[C@H](CCCNC(=N)N)NC(C)=O)C(C)C)[C@@H](C)CC)C(=O)N[C@@H](CO)C(=O)N[C@@H](CCCCNC(=O)[C@H](CO)NC(=O)[C@@H](Cc1c[nH]cn1)NC(=O)[C@H](CCCNC(=N)N)NC(=O)[C@H](Cc1ccc(O)cc1)NC(=O)[C@H](CCCN)NC(=O)[C@@H](NC(=O)[C@H](CCCNC(=N)N)NC(=O)[C@H](NC(=O)[C@H](Cc1ccccc1)NC(=O)[C@H](Cc1ccc(O)cc1)NC(=O)[C@H](CCCNC(=N)N)NC(C)=O)C(C)C)[C@@H](C)CC)C(=O)N[C@@H](CSC1CC(=O)N(CCCCCC(=O)NNC(=O)CCCCC2SC[C@H]3NC(=O)N[C@@H]23)C1=O)C(N)=O (some centres unmarked) [(51-hS)2KS-(51-hS)KC-Mal-Biotin] (I: Ac-RYF[dV]R[ξIle][Orn]YR[dH]SKSKC(X2)-NH2 / II: Ac-RYF[dV]RI[Orn]YR[dH]S / III: Ac-RYF[dV]RI[Orn]YR[dH]S; amide I:12-II:C, I:14-III:C)
binding on CHO-K1 cells, times better than (51-hS)2KC-Mal-Biotin [5]: 17.9 × | reduction of fluorescence on CHO-pgsA-745 as compared with fluorescence on CHO-K1 cells [6]: 209.9 fold
